Experimental data from patent US8754071B2 (priority 2011, dated 2014).
Where two headings read alike, the source gives them in different places.

Biological target: T1, c-kit (Homo sapiens, UniProt P10721)
T1 construct: human Mo7e cells which endogenously express c-kit; endogenous in cells; host or cells: human Mo7e cells (promegakaryocytic leukemia line), stimulated with human recombinant SCF
Assay: Mo7e cell proliferation assay (SCF dependent proliferation)
Type: cell-based
Conditions: read-out: c-kit (Mo7e)
How it was run: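 Human Mo7e cells with endogenous c-kit, proliferation driven by SCF, 384-well format. After 48 h at 37 °C viability read by CellTiter-Glo luminescence. IC50 taken as concentration giving response halfway between baseline and maximum.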

[1] = Table 1, human Mo7e cells stimulated with SCF, 48 hours, CellTiter Glo, 1% FBS
[2] = Table 2, values marked *: 20% FBS instead of 1% FBS
[3] = Table 2, human Mo7e cells stimulated with SCF, 48 hours, CellTiter Glo, 1% FBS

T1 sequence (P10721 26-976): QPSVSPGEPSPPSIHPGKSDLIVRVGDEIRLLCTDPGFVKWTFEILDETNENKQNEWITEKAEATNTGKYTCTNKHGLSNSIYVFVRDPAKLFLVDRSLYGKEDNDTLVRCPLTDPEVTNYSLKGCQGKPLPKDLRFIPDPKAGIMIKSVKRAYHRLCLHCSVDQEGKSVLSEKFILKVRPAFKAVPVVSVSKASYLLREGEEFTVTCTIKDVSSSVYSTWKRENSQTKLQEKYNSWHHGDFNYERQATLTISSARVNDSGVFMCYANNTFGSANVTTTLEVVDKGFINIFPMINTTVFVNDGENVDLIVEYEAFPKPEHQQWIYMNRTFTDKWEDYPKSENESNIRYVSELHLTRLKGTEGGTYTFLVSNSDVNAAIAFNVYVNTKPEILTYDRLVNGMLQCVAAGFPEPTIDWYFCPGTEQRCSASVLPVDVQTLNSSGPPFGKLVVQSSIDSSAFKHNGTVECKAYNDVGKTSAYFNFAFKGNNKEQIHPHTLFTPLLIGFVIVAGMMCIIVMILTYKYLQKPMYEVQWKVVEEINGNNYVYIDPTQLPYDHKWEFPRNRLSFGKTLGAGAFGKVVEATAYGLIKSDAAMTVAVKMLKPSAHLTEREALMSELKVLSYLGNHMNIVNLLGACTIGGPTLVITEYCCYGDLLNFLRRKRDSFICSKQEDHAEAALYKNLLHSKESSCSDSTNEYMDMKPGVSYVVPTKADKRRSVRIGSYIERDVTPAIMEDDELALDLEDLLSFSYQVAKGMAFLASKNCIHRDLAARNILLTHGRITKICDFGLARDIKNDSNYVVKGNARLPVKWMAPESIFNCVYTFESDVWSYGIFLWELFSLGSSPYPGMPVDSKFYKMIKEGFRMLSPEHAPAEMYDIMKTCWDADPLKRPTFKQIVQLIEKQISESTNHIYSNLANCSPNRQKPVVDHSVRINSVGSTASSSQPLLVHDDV

SMILES	IC50 [1] [nM]	IC50 [3] [nM]	also measured
COC(=O)N1CC(c2nc(-c3ccc(C)c(NC(=O)c4cnc5cc(C(F)(F)F)ccn45)c3)no2)C1 [F57, methyl 3-(3-(4-methyl-3-(7-(trifluoromethyl)imidazo[1,2-a]pyridine-3-carboxamido)phenyl)-1,2,4-oxadiazol-5-yl)azetidine-1-carboxylate]	130		
Cc1ccc(-c2noc([C@@H]3CCCO3)n2)cc1NC(=O)c1cnc2ccccn12 [F104]			IC50 [2]: 224 nM
Cc1ccc(Nc2noc(C3CCOCC3)n2)cc1NC(=O)c1cnc2ccccn12 [F69]	39		
[2H]C([2H])([2H])c1ccn2c(C(=O)Nc3cc(-c4noc(C5CN(C(=O)OC)C5)n4)ccc3C)cnc2c1 [F80, methyl 3-(3-(4-methyl-3-(7-methyl-d3-imidazo[1,2-a]pyridine-3-carboxamido)phenyl)-1,2,4-oxadiazol-5-yl)azetidine-1-carboxylate]	44		
Cc1ccc(-c2noc(C3CN(S(=O)(=O)C4CCN(C(=O)OC(C)(C)C)CC4)C3)n2)cc1NC(=O)c1cnc2ccccn12 [F163]		185	
Cc1ccc(-c2noc(CC3CCCCO3)n2)cc1NC(=O)c1cnc2ccccn12 (stereo not shown) [F44]	17		
COC(=O)N1CC(c2nc(-c3ccc(C)c(NC(=O)c4cnc5ccc(OC)cn45)c3)no2)C1 [F60]	28		
COC(=O)N1CC(c2nc(-c3ccc(C)c(NC(=O)c4cnc5ccc(CCC(C)(C)O)cn45)c3)no2)C1 [F67, methyl 3-(3-(3-(6-(3-hydroxy-3-methylbutyl)imidazo[1,2-a]pyridine-3-carboxamido)-4-methylphenyl)-1,2,4-oxadiazol-5-yl)azetidine-1-carboxylate]	29		
Cc1ccc(-c2noc(C3CCCN(C(=O)OC(C)(C)C)C3)n2)cc1NC(=O)c1cnc2ccccn12 (stereo not shown) [F282]			IC50 [2]: 1600 nM
COC(=O)N1CC(c2nc(-c3ccc(C)c(NC(=O)c4cnc5cc(CCC(C)=O)ccn45)c3)no2)C1 [F73, methyl 3-(3-(4-methyl-3-(7-(3-oxobutyl)imidazo[1,2-a]pyridine-3-carboxamido)phenyl)-1,2,4-oxadiazol-5-yl)azetidine-1-carboxylate]	30		
Cc1ccc(-c2noc(C3CC[C@H](O)CO3)n2)cc1NC(=O)c1cnc2ccccn12 (stereo partly shown) [F114]		183	
Cc1ccc(-c2nc(N3C[C@@H]4C[C@@H](C3)O4)no2)cc1NC(=O)c1cnc2ccccn12 [F3]	90		
O=C(Nc1cc(-c2noc(CN3CCC(F)(F)CC3)n2)ccc1F)c1cnc2ccccn12 [F46]	73		
Cc1ccc(-c2noc(C3CN(C(=O)OC4(C)CC4)C3)n2)cc1NC(=O)c1cnc2ccccn12 [F126]		891	
O=C(Nc1cc(-c2noc(CN3CCC(F)(F)C3)n2)ccc1F)c1cnc2ccccn12 [F45]	90		
Cc1ccc(-c2noc(CN3CC(F)(F)C3)n2)cc1NC(=O)c1cnc2ccccn12 [F21]	44		
COC(=O)N1CC(c2nc(-c3ccc(C)c(NC(=O)c4cnc5ccc(F)cn45)c3)no2)C1 [F55]	54		

SMILES	IC50 [1] [nM]	IC50 [3] [nM]	also measured
COC(=O)N1CC[C@H]1c1nc(-c2ccc(C)c(NC(=O)c3cnc4ccccn34)c2)no1 [F151]		357	
Cc1ccc(-c2noc(CC3CCCO3)n2)cc1NC(=O)c1cnc2ccccn12 (stereo not shown) [F18]	64		
Cc1ccc(-c2noc(C3CN(C(=O)OCCN4CCOCC4)C3)n2)cc1NC(=O)c1cnc2ccccn12 [F134]		892	
COC(=O)N1CC(c2noc(-c3ccc(C)c(NC(=O)c4cnc5ccccn45)c3)n2)C1 [F101]		332	
CCS(=O)(=O)N1CC(c2nc(-c3ccc(C)c(NC(=O)c4cnc5ccccn45)c3)no2)C1 [F19]	33		
Cc1ccc(-c2noc(N3CCC3)n2)cc1NC(=O)c1cnc2ccccn12 [F77, N-(5-(5-(azetidin-1-yl)-1,2,4-oxadiazol-3-yl)-2-methylphenyl)imidazo[1,2-a]pyridine-3-carboxamide]	132		
Cc1ccc(-c2noc(C3CN(S(=O)(=O)C4CCOCC4)C3)n2)cc1NC(=O)c1cnc2ccccn12 [F160]		380	
[2H]c1c([2H])c([2H])n2c(C(=O)Nc3cc(-c4noc(C5CN(C(=O)OC)C5)n4)ccc3C)cnc2c1[2H] [F76, methyl 3-(3-(4-methyl-3-(5,6,7,8-(D4)imidazo[1,2-a]pyridine-3-carboxamido)phenyl)-1,2,4-oxadiazol-5-yl)azetidine-1-carboxylate]	51		
Cc1ccn2c(C(=O)Nc3cc(-c4noc(N5CCC(F)(F)CC5)n4)ccc3C)cnc2c1 [F89]	31		
Cc1ccc(-c2noc(C3CN(S(=O)(=O)C4CCOC4)C3)n2)cc1NC(=O)c1cnc2ccccn12 (stereo not shown) [F159]		157	
COC(=O)N1CC(c2nc(-c3ccc(C)c(NC(=O)c4cnc5cc(-c6cc[nH]n6)ccn45)c3)no2)C1 [F68, methyl 3-(3-(3-(7-(1H-pyrazol-3-yl)imidazo[1,2-a]pyridine-3-carboxamido)-4-methylphenyl)-1,2,4-oxadiazol-5-yl)azetidine-1-carboxylate]	13		
Cc1ccc(-c2noc(C3CN(S(C)(=O)=O)C3)n2)cc1NC(=O)c1cnc2ccccn12 [F14]	42		
Cc1ccc(-c2noc(C3CCN(S(C)(=O)=O)CC3)n2)cc1NC(=O)c1cnc2ccccn12 [F34]	95		
Cc1ccc(-c2noc([C@H](C)N3CC(F)(F)C3)n2)cc1NC(=O)c1cnc2ccccn12 [F50]	77		
COC(=O)N1CC(c2nc(-c3ccc(C)c(NC(=O)c4cnc5ccc(N6CCOCC6)cn45)c3)no2)C1 [F83]	40		
Cc1ccc(-c2noc(C3CCOC3)n2)cc1NC(=O)c1cnc2ccccn12 (stereo not shown) [F7]	78		
COC(=O)N1CC(c2nc(-c3ccc(C)c(NC(=O)c4cnc5cc(F)ccn45)c3)no2)C1 [F54]	37		

Second part, led by results:

IC50 [1] [nM]	IC50 [3] [nM]	SMILES	also measured
	142	COC(=O)N1CCO[C@@H](c2nc(-c3ccc(C)c(NC(=O)c4cnc5ccccn45)c3)no2)C1 [F198]	
	8080	Cc1ccc(-c2noc(C3C[C@@H](O)CN3)n2)cc1NC(=O)c1cnc2ccc(F)cn12 (stereo partly shown) [F305]	
	1630	Cc1ccc(-c2noc(CC3CN(C(=O)OC(C)(C)C)C3)n2)cc1NC(=O)c1cnc2ccccn12 [F283]	
	1280	Cc1ccc(-c2noc([C@H]3CCCN3C(=O)OC(C)(C)C)n2)cc1NC(=O)c1cnc2ccccn12 [F278]	
	217	Cc1ccc(-c2noc(C3CN(C(=O)C(F)(F)F)C3)n2)cc1NC(=O)c1cnc2ccccn12 [F230]	
	1170	Cc1ccc(-c2noc([C@H]3C[C@@H](O)CN3S(C)(=O)=O)n2)cc1NC(=O)c1cnc2ccc(F)cn12 [F273]	
	141	COC(=O)N1CCC[C@@H](c2nc(-c3ccc(C)c(NC(=O)c4cnc5ccccn45)c3)no2)C1 [F207]	
	460	CC(=O)N1CCC[C@H]1c1nc(-c2ccc(C)c(NC(=O)c3cnc4ccccn34)c2)no1 [F197]	
	112	Cc1ccc(-c2noc([C@@H](C)N3CC(F)(F)C3)n2)cc1NC(=O)c1cnc2ccccn12 [F226]	
	728	Cc1ccc(-c2noc(C3CN(C(=O)OC(C)(C)C)CCO3)n2)cc1NC(=O)c1cnc2ccccn12 (stereo not shown) [F175]	
	328	COC(=O)N1CC(c2nc(-c3ccc(C)c(NC(=O)c4cnc5ccc(CC(C)(C)O)cn45)c3)no2)C1 [F247]	
	476	Cc1ccc(-c2noc(CC3CN(S(C)(=O)=O)C3)n2)cc1NC(=O)c1cnc2ccccn12 [F178]	
	1040	Cc1ccc(-c2noc(CNC(=O)CC3CCOCC3)n2)cc1NC(=O)c1cnc2ccccn12 [F270]	
	240	CC(=O)N1CCC(c2nc(-c3ccc(C)c(NC(=O)c4cnc5ccccn45)c3)no2)C1 (stereo not shown) [F171]	
	395	Cc1ccc(-c2noc([C@H]3CCCN3)n2)cc1NC(=O)c1cnc2ccccn12 [F200]	
	1140	Cc1ccc(-c2noc(C3C[C@@H](O)CN3S(C)(=O)=O)n2)cc1NC(=O)c1cnc2ccc(F)cn12 (stereo partly shown) [F272]	
	2200	Cc1ccc(-c2nc(N3CC4(COC4)C3)no2)cc1NC(=O)c1cnc2ccccn12 [F294]	

IC50 [1] [nM]	IC50 [3] [nM]	SMILES	also measured
	173	Cc1ccc(-c2noc(C3CN(S(=O)(=O)c4cnn(C)c4)C3)n2)cc1NC(=O)c1cnc2ccccn12 [F217]	
	212	CC(=O)N1CC(F)(F)C[C@H]1c1nc(-c2ccc(C)c(NC(=O)c3cnc4ccccn34)c2)no1 [F173]	
	2200	Cc1ccc(-c2noc(CC3CNC3)n2)cc1NC(=O)c1cnc2ccccn12 [F295]	
	831	Cc1ccc(-c2noc(C3CN(C(=O)N(C)C)C3)n2)cc1NC(=O)c1cnc2ccccn12 [F174]	
	566	CC(=O)N1CCOC(c2nc(-c3ccc(C)c(NC(=O)c4cnc5ccccn45)c3)no2)C1 (stereo not shown) [F195]	
	309	COC(=O)N1CC[C@H]1c1nc(-c2ccc(C)c(NC(=O)c3cnc4ccc(C)cn34)c2)no1 [F262]	
	218	COC(=O)N1CC(c2nc(-c3ccc(C)c(NC(=O)c4cnc5ccc(C(F)(F)F)cn45)c3)no2)C1 [F233]	
	169	Cc1ccc(-c2noc(CCN3CCOCC3)n2)cc1NC(=O)c1cnc2ccccn12 [F180]	
	245	O=C(Nc1cc(-c2noc(CN3CCOCC3)n2)ccc1F)c1cnc2ccccn12 [F229]	
	690	O=C(Nc1cc(-c2noc(C3CN(S(=O)(=O)c4cccnc4)C3)n2)ccc1F)c1cnc2ccccn12 [F220]	
	650	Cc1ccc2ncc(C(=O)Nc3cc(-c4noc(COC5CN(C(=O)OC(C)(C)C)C5)n4)ccc3C)n2c1 [F267]	
	119	Cc1ccc(-c2noc(CCN3CC(F)(F)C3)n2)cc1NC(=O)c1cnc2ccccn12 [F179]	
	317	COC(=O)N1CC(c2nc(-c3ccc(C)c(NC(=O)c4cnc5ccc(C(C)(C)O)cn45)c3)no2)C1 [F246]	
	157	Cc1ccc(-c2nc(N3CC(C)(O)C3)no2)cc1NC(=O)c1cnc2ccccn12 [F251]	
	1120	CCN1CC(c2nc(-c3ccc(C)c(NC(=O)c4cnc5ccccn45)c3)no2)C1 [F271]	
	376	COCCS(=O)(=O)N1CC(c2nc(-c3ccc(F)c(NC(=O)c4cnc5ccccn45)c3)no2)C1 [F222]	
